# Data taken from patent US20230116196A1, “METHOD OF TREATING CNS DISORDERS WITH NEU[…] GABAERGIC COMPOUNDS” (priority 2017, published 2023).
# Legend:
# α4β3δ GABAA receptors = molecular target: T1, α4β3δ GABAA receptors (Homo sapiens, UniProt O14764+P28472+P48169); experiment: Whole-cell patch clamp: potentiation of GABA EC20 currents at recombinant α4β3δ GABAA receptors; type: cell-based; settings: data not shown
# T1 construct: expressed in transfected cells; host or cells: CHO cells, transiently transfected (Lipofectamine)
# T1 sequence (P48169 36-554): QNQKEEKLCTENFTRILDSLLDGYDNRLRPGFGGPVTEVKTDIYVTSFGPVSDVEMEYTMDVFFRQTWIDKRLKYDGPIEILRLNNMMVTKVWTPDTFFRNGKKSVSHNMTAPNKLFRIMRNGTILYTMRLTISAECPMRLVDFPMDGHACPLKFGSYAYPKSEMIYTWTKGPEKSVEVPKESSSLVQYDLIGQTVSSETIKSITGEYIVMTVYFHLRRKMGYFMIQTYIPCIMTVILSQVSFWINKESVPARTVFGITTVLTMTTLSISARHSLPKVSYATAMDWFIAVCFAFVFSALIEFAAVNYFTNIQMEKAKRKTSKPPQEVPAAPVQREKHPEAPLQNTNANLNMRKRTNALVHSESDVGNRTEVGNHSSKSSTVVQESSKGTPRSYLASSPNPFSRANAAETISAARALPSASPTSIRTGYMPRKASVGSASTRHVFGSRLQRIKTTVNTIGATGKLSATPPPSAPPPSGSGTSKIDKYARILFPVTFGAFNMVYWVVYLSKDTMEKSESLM
# T1 sequence (P28472 26-473): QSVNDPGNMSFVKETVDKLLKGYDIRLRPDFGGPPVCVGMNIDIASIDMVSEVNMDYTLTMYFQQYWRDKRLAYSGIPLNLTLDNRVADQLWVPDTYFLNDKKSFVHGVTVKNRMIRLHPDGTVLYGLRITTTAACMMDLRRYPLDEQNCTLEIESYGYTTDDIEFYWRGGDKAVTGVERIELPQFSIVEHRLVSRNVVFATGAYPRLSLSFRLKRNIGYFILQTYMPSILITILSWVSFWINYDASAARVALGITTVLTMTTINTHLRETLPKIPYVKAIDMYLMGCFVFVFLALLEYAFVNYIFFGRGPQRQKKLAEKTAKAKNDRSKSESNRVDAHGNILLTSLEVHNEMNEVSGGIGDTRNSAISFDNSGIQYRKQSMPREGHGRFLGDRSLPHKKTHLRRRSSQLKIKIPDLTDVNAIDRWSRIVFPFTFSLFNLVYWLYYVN
# T1 sequence (O14764 25-452): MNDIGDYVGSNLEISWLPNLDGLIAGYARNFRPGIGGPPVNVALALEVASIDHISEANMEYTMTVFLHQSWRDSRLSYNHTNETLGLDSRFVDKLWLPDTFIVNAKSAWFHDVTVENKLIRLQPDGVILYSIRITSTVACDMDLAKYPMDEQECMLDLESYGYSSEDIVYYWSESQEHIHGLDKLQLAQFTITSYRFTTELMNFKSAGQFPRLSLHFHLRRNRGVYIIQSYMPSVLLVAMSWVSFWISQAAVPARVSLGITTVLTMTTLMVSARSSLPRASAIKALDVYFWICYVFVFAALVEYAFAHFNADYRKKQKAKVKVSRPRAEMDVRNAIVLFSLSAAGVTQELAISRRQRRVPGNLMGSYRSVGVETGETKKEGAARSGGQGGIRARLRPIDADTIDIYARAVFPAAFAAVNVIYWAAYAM
# Method: Cellular electrophysiology was used to measure the pharmacological properties of ALLO, ganaxolone and SGE-516 in heterologous cell systems. Compounds were tested for their ability to affect GABA mediated currents at a submaximal agonist dose (GABA EC20=2 μM).
# LTK cells were stably transfected with the α1β2γ2 subunits of the GABA receptor and CHO cells are transiently transfected with the α4β3γ subunits via the Lipofecatamine method. Cells were passaged at a confluence of about 50-80% and then seeded onto 35 mm sterile culture dishes containing 2 ml culture complete medium without antibiotics or antimycotics. Cells were cultivated at a density that enabled the recording of single cells without visible connections to other cells.
# Whole-cell currents were measured with HEKA EPC-10 amplifiers using PatchMaster software. Bath solution for all experiments contained (in mM): NaCl 137, KCl 4, CaCl2 1.8, MgCl2 1, HEPES 10, D-Glucose 10, pH 7.4 with NaOH. Intracellular (pipette) solution contained (in mM): KCl 130, MgCl2 1, Mg-ATP 5, HEPES 10, EGTA 5, pH 7.2 with KOH. During experiments, cells and solutions were maintained at room temperature (19° C.-30° C.). For manual patchclamp recordings, cell culture dishes were placed on the dish holder of the microscope and continuously perfused (1 ml/min) with bath solution. After formation of a Gigaohm seal between the patch electrode and the cell (pipette resistance range: 2.5 MΩ-6.0MΩ; seal resistance range: >1 GΩ) the cell membrane across the pipette tip was ruptured to assure electrical access to the cell interior (whole-cell patch configuration).
# Cells were voltage-clamped at a holding potential of −80 mV. GABAA receptors were activated by 2 μM GABA and compounds were sequentially applied at increasing concentrations for 30 s prior to a 2 s application of GABA. GABA and compounds were applied to cells via the Dynaflow perfusion system (Cellectricon, Sweden). Test compounds were dissolved in DMSO to form 10 mM stock solution and serially diluted to 0.01, 0.1, 1, and 10 μM in bath solution. There was no effect on GABA currents when DMSO was applied to cells at its maximal concentration in solution (0.1%). All concentrations of test compound were tested on each cell. The relative percentage potentiation was defined as the peak amplitude in response to GABA EC20 in the presence of test compound divided by the peak amplitude in response to GABA EC20 alone, multiplied by 100.
# ALLO and ganaxolone are known PAMs of both synaptic and extrasynaptic GABAAR-mediated currents. The ability of candidate compound SGE-516 to act as a PAM was compared to ALLO and ganaxolone using the whole-cell recordings of recombinant human GABAA receptors expressed in mammalian cells. The α1β2γ2 or α4β3δ subunit combinations were chosen as representatives of typical synaptic and extrasynaptic GABAA receptors respectively. Similar to previous reports (Botella et al., 2015), ALLO, ganaxolone and SGE-516 allosterically potentiated currents induced by EC20 concentration of GABA in a concentration-dependent manner in both synaptic- and extrasynaptic-type GABAARs.
# GT1-7 cells [1] = experiment: Immunoblot of β3 S408/9 phosphorylation in GT1-7 cells; type: cell-based; settings: 100 nM, 15 min
# Method: GT1-7 cells that co-express mPRα and GABAARs were used to measure the level of phosphorylation at S408/9 position of β3 subunit. […] Expression of mPRα was confirmed using western blotting.
# GT1-7 cells were treated with 100 nM AllO or P4 for 15 min and immunoblotted with antibodies specifically recognizing β3, actin, and […] β3 subunit (pS408/9). The ratio of pS408/9 β3 subunit immunoreactivity were then normalized to levels seen in vehicle treated to controls, n=6.
# [2] = test system: GABAA receptor β3 subunit S408/9; experiment: Immunoblot of β3 S408/9 phosphorylation in hippocampal slices; type: cell-based, mouse; settings: 100 nM
# Method: Asterisks represent a significant difference from control (ALLO: p<0.01, Student's t-test, n=10 slices, from 10 mice; SGE-516: p<0.05, Student's t-test, n=4 slices, from 4 mice). […] Asterisks represent a significant difference from control (ALLO: p<0.05, Student's t-test, n=8 slices; SGE-516: p<0.05, Student's t-test, n=4 slices).
# Hippocampi were dissected out of acute slices from 8 to 12 week old C57/Bl6 mice and lysed with […] including: 20 mM Tris-HCl, 150 mM NaCl, 5 mM EDTA, 10 mM NaF, 2 mM Na3VO4, 10 mM pyrophosphate, 0.1% SDS and 1% Triton after drug treatment. The β3 subunit was isolated using immunoprecipitation with β3 antibodies, after correction for protein content and the specific activity of labeling. Results were attained by SDS/PAGE followed by autoradiography (Abramian et al., 2010). For biotinylation experiments hippocampi were dissected out of acute slices from 8 to 12 week old C57/Bl6 mice and incubated in artificial cerebrospinal fluid (ACSF) described above at 30° C. for 1 h for recovery before experimentation. Slices were then placed on ice and incubated for 30 min with 1 mg/mL NHS-SS-biotin (Pierce). Excess biotin was removed by a 50 mM glycine quenching buffer, followed by washing of slices three times in ice-cold ACSF. The tissue was snap frozen on dry ice for 5 min, thawed at 4° C. and lysed. The lysates were solubilized with 2% Triton at 4° C. on a rotating wheel for 1 h. The insoluble material was removed by centrifugation, and 350-500 μg of protein lysate were incubated with NeutrAvidin beads (Pierce) for 18-24 h at 4° C. Bound material was eluted with sample buffer and subjected to SDS/PAGE and then immunoblotted with the indicated antibodies. Blots were then quantified using the CCD-based ChemiDoc XRS ? system. Antibodies against the β3 subunit and the phospho-β3 antibody were generated and verified by the laboratory of S.J.M. (Vien et al., 2015).
# Treatment of hippocampal slices with SGE-516 increased the phosphorylation of S408/9 measured using pS408/9 antibodies. To produce antibodies specific for phosphorylated S443, rabbits were injected with a synthetic peptide corresponding to residues […] of the murine α4 subunit in which the serine residue corresponding to S443 was chemically phosphorylated; […]. Hippocampal slices were treated with vehicle (Con), or SGE-516 for 20 min. Slices were immunoblotted with pS408/9, β3, or actin antibodies. The ratio of pS408/9/β3 immunoreactivity was then normalized to control slices (100%=the line).
# Hippocampal slices were treated with 100 nM ALLO or P4 (progesterone), and S408/9 phosphorylation was then determined as detailed above, n=4 slices (FIG. 18D). Hippocampal slices were treated with 100 nM ORG (FIG. 18E). S408/9 phosphorylation was examined using immunoblotting. […]
# [3] = test system: dentate gyrus granule cells (DGGCs); type: cell-based, mouse; settings: protocol as FIG. 3
# Method: Brain slices were prepared from 3- to 5-week-old male C57 mice. Mice were anesthetized with isoflurane, decapitated, and brains were rapidly removed and submerged in ice-cold cutting solution containing (mM): 126 NaCl, 2.5 KCl, 0.5 CaCl2, 2 MgCl2, 26 NaHCO3, 1.25 NaH2PO4, 10 glucose, 1.5 sodium pyruvate, and 3 kynurenic acid. Coronal 310 μm thick slices were cut with the vibratome VT1000S (Leica Microsystems, St Louis, Mo., USA). The slices were then transferred into incubation chamber filled with prewarmed (31-32° C.) oxygenated artificial cerebro-spinal fluid (ACSF) of the following composition (in mM): 126 NaCl, 2.5 KCl, 2 CaCl2, 2 MgCl2, 26 NaHCO3, 1.25 NaH2PO4, 10 glucose, 1.5 sodium pyruvate, 1 glutamine, 3 kynurenic acid and 0.005 GABA bubbled with 95% O2-5% CO2. Slices were allowed to recover at 32° C. for at least 1 hr before recording. Exogenous GABA was added in an attempt to standardize ambient GABA in the slice and provide an agonist source for newly inserted extrasynaptic GABAARs.
# After recovery, a single slice was transferred to a submerged, dual perfusion recording chamber (Warner Instruments, Hamden, Conn., USA) on the stage of an upright microscope (Nikon FN-1) with a 40× water immersion objective equipped with DIC/IR optics. Slices were maintained at 32° C. and gravity-superfused with ACSF solution throughout experimentation and perfused at rate of 2 ml/min with oxygenated (O2/CO2 95/5%) ACSF.
# Whole-cell currents were recorded from the dentate gyrus granule cells (DGGCs) in 310-μm-thick coronal hippocampal slices. Patch pipettes (5-7MΩ) were pulled from borosilicate glass (World Precision Instruments) and filled with intracellular solution of the composition (in mM) as follows: 140 CsCl, 1 MgCl2, 0.1 EGTA, 10 HEPES, 2 Mg-ATP, 4 NaCl and 0.3 Na-GTP (pH=7.2 with CsOH). A 5 min period for stabilization after obtaining the whole-cell recording conformation (holding potential of −60 mV) was allowed before currents were recorded using an Axopatch 200B amplifier (Molecular Devices), low-pass filtered at 2 kHz, digitized at 20 kHz (Digidata 1440A; Molecular Devices), and stored for offline analysis.
# For tonic current measurements, an all-points histogram was plotted for a 10 s period before and during 100 μM picrotoxin application, once the response reached a plateau level. Recordings with unstable baselines were discarded. Fitting the histogram with a Gaussian distribution gave the mean baseline current amplitude and the difference between the amplitudes before and during picrotoxin was considered to be the tonic current. The negative section of the all-points histogram which corresponds to the inward IPSCs was not fitted with a Gaussian distribution (Kretschmannova et al., 2013; Nusser and Mody, 2002). Series resistance and whole-cell capacitance were continually monitored and compensated throughout the course of the experiment. Recordings were eliminated from data analysis if series resistance increased by >20%. Spontaneous inhibitory post-synaptic currents (sIPSCs) were analyzed using the mini-analysis software (version 5.6.4; Synaptosoft, Decatur, Ga.). Minimum threshold detection was set to 3 times the value of baseline noise signal. To assess sIPSC kinetics, the recording trace was visually inspected and only events with a stable baseline, sharp rising phase, and single peak were used to negate artifacts due to event summation. Only recordings with a minimum of 200 events fitting these criteria were analyzed. sIPSCs amplitude, and frequency from each experimental condition was pooled and expressed as mean±SEM. To measure sIPSC decay, 100 consecutive events were averaged and the decay was fitted to a double exponential and the weighted decay constant (tw) was determined. Statistical analysis was performed by using Student t-test (paired and unpaired where appropriate), where p<0.05 is considered significant.
# [4] = test system: dentate gyrus granule cells (DGGCs); settings: Abramian et al., 2010, 2014; cited from earlier work
# [5] = test system: GABAARs composed of α4β3 subunits; experiment: Acute modulation of IGABA in HEK-293 expressing GABAARs; type: cell-based; settings: 100 mM (so in the source), rapidly applied with GABA
# GT1-7 cells [6] = experiment: Patch-clamp of GABA-induced currents (IGABA) in GT1-7 cells; type: cell-based; settings: 100 nM in electrolyte, GABA EC20, 20 min time course
# Method: Patch-clamp recordings were made from GT1-7 cells. The magnitude of the GABA-induced currents (IGABA) at EC20 agonists concentration were then measured, in the presence of control electrolyte or that supplemented with 100 nM ALLO, or 100 nM ORG OD 02-0 over a time course of 20 min.
structure (smiles),measurement,setting,value
CN1C(=O)CN=C(c2ccccc2)c2cc(Cl)ccc21 [diazepam],effect on GABA evoked currents in α4β3δ receptors,α4β3δ GABAA receptors,did not alter
"CC(=O)[C@H]1CC[C@H]2[C@@H]3CCC4=CC(=O)CC[C@]4(C)[C@H]3CC[C@]12C [P4, Progesterone]",S408/9 phosphorylation in GT1-7 cells,GT1-7 cells [1],increase
same,S408/9 phosphorylation in hippocampal slices (FIG. 18),[2],regulated
same,"amplitude and density of GABAergic tonic current, varying doses",[3],dosage-dependent effect
"C[C@]12CC[C@@H](O)C[C@H]1CC[C@@H]1[C@@H]2CC[C@]2(C)[C@@H](C(=O)CO)CC[C@@H]12 [THDOC, Tetrahydrodeoxycorticosterone]",sustained effect on GABAergic tonic current,[4],long lasting increase
C=C[C@]12CCC(=O)C=C1CCC1C2CC[C@@]2(C)C1CC[C@@H]2C(C)=O (stereo partly drawn) [ORG OD 02-0],S408/9 phosphorylation in hippocampal slices (FIG. 18),[2],regulated
same,acute modulation of function of GABAARs composed of α4β3 subunits,[5],did not acutely modulate
same,GABA-evoked currents recorded from GT1-7 cells,GT1-7 cells [6],sustained increases
same,"amplitude and density of GABAergic tonic current, varying doses",[3],dosage-dependent effect
